Measurements as given in publication PMC10067601, “Identification of a peptide ligand for human ALDH3A1 through peptide phage display: Prediction and characterization of protein interaction sites and inhibition of ALDH3A1 enzymatic activity” (Frontiers in Molecular Biosciences, 2023).
“Also recorded” adds a separate entry of the source.

Tested on: human recombinant ALDH3A1 (6-His)
Assay: Phage display panning, Ph.D.-12 random 12-mer library (3 rounds, clones sequenced)
Format: binding
Settings: for Frequency of appearance: clones out of 33 sequenced after third panning round, 75 μg ALDH3A1 coated, Ph.D.-12 library
Protocol: For phage titration, 50 μL of an overnight E. coli ER2738 (host strain) culture were used for the inoculation of 5 mL Luria Broth (LB) which was subsequently cultivated at 37°C (220 rpm). When E. coli ER2738 culture reached an OD600 value of approximately 0.5, 200 μL of the culture were mixed with 10 μL of the phage solution and the mixture was vortexed and incubated for 5 min at room temperature (RT). Subsequently, it was diluted in 3 mL of warm agarose top (0.7% agarose, 0.5% yeast extract, 1% Bacto-Tryptone, 0.5% NaCl, 0.1% MgCl2•H2O) and poured in LB/IPTG/Xgal agar plates (LB agar plates with 0.004% X-gal 0.005% IPTG). Plates were incubated overnight at 37°C.
The procedure was initiated with the amplification of the phage plaques as described in 2.5 with the exception that after the first centrifugation, 500 μL of the supernatant was transferred into a fresh tube. Then, 200 μL PEG/NaCl were added and the sample was mixed and incubated at RT for 10 min. The sample was subsequently centrifuged at 14,000 rpm, for 10 min at 4°C and the supernatant was removed. After the second round of centrifugation under the same conditions, the remaining supernatant was carefully discarded. Pellet was then re-suspended in 100 μL of iodine buffer (4M NaI, 1 mM EDTA, 10 mM Tris-HCl, pH 8.0) and 250 μL of ethanol were subsequently added. The mixture was incubated at RT for 10 min, centrifuged at 14,000 rpm for 10 min at RT, and the supernatant was discarded. Finally, 70% of pure ethanol was used for DNA wash and the pellet was suspended in 30 μL sterilized ddH2O. Samples were stored at −20°C until needed. Isolated M13 phage ssDNA (∼120 ng) was subjected to agarose gel electrophoresis, and the residual volume of the ssDNA was sent for single extension sequencing from the primer 5′-CCCTCATAGTTAGCGTAACG-3’. Sequencing was conducted by VBC biotech (Vienna, Austria). The resulting sequences were used for the estimation of the respective 12-mer peptides. […]

Sequence: WPTYVSPFRSPP [P1, …, prevailing 12-mer phage display peptide, synthesised by Genecust]
- Frequency of appearance: 30 out of 33
- Frequency of appearance (listed as WPTYVSPFRSPP): 30 out of the 33
- Strength of interaction with recombinant hALDH3A1 (inferred from frequency of appearance): strongest and most specific interaction with the recombinant hALDH3A1; also recorded: appeared to bind most efficiently to hALDH3A1
